Here are results for eleven compounds from patent US20240025887A1, “THIENYL AND CYCLOALKYL AMINOPYRIMIDINE COMPOUNDS AS INHIBITORS OF NUAK KINASES, COMPOSITIONS AND USES THEREOF” (Ontario Institute for Cancer Research (OICR), priority 2021, published 2024).

By IC50 is commonly meant the point on the concentration scale where inhibition reaches its midpoint.

In one assay the target is T1, NUAK2 (h) (Homo sapiens, UniProt Q9H093).
T1 construct: This assay was done radiometrically using full-length, recombinant enzyme; purchased Eurofins
T1 sequence (Q9H093 1-628): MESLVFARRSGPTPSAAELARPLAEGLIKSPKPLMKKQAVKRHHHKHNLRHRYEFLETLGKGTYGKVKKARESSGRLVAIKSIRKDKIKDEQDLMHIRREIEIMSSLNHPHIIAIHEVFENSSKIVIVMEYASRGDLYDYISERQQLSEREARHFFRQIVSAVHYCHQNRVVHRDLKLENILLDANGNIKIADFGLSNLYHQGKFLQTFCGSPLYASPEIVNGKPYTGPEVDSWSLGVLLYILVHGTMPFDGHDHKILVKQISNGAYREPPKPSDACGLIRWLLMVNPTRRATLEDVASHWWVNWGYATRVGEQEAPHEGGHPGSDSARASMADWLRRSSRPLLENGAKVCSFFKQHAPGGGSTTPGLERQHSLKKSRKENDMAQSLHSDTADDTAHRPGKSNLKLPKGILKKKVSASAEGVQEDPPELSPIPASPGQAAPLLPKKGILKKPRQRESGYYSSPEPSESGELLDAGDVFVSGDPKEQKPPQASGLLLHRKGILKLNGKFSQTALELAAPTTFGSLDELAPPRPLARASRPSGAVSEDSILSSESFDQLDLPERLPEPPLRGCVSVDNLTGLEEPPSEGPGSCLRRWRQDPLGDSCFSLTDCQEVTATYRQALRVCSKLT
Kind of assay: NUAK2 enzymatic assay (radiometric, Eurofins). It counts as biochemical. The note with it: for IC50: radiometric, full-length recombinant enzyme; for AUR-A (IC50, nM)/NUAK2 (IC50, nM): NUAK2 selectivity over Aurora-A, ratio of IC50s. Put shortly: (§1)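 Radiometric assay with full-length recombinant NUAK2 in 8 mM MOPS pH 7.0, 0.2 mM EDTA, 10 mM magnesium acetate, 300 μM peptide substrate and [33P]-ATP, 40 min at room temperature. Phosphoric acid stop, filter capture, scintillation counting. Aurora A and NUAK1 used as counter screens.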

The subject of the next assay is MDA-MB-231 cells. Kind of assay: Tumor cell growth inhibition assay (ATPlite). The note with it: Homo sapiens, 120 h, MDA-MB-231 breast tumor cell line, 5 days. Type of assay: cell-based. How it is done: MDA-MB-231 cells were seeded into a 384-well plate at 1,000 cells/well in 50 μl medium (Alpha-MEM containing 10% FBS, […] Normocin, Invivogen and […] Gentamycin, Invitrogen). Plates were then incubated overnight for the cells to attach. An HP D300 digital dispenser was used to dose cells with DMSO or test compounds across a 16-point range of concentrations (high dose of 10 uM to low dose of 5 nM). Plates were incubated in a humidified 5% CO2 incubator at 37° C. After 5 days, plates were removed from the incubator and equilibrated to room temperature. An equal volume of ATPlite assay reagent was then added to each well, and samples processed according to manufacturer's instructions (Perkin Elmer). Luminescent signals were then measured using an Envision plate reader equipped with a US-Luminescence detector.
Background: In ATP-based viability assays light output follows the ATP content of the culture.

Another assay addresses T2, NUAK1 (Homo sapiens, UniProt O60285).
T2 sequence (O60285 1-661): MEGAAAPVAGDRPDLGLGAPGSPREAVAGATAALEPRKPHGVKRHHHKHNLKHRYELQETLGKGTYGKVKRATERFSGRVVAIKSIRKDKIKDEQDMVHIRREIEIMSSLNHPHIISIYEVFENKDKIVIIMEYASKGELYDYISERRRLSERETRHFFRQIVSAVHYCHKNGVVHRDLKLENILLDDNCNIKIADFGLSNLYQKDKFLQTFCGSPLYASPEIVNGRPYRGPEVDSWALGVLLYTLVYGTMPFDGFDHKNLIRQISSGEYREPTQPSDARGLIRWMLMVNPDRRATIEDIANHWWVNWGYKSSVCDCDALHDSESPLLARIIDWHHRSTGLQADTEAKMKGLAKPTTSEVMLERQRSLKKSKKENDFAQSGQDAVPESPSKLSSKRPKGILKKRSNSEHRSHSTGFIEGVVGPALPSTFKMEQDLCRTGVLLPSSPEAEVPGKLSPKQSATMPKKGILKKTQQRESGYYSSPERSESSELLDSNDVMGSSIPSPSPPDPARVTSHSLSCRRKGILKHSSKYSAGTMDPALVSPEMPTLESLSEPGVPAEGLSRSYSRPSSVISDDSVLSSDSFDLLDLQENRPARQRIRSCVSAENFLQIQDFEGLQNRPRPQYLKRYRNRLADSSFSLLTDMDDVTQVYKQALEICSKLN
Kind of assay: NUAK1 counter screen. Type of assay: biochemical. An outline of the steps: as §1

In another assay the target is T3, Aurora A (Homo sapiens, UniProt O14965).
T3 sequence (O14965 1-403): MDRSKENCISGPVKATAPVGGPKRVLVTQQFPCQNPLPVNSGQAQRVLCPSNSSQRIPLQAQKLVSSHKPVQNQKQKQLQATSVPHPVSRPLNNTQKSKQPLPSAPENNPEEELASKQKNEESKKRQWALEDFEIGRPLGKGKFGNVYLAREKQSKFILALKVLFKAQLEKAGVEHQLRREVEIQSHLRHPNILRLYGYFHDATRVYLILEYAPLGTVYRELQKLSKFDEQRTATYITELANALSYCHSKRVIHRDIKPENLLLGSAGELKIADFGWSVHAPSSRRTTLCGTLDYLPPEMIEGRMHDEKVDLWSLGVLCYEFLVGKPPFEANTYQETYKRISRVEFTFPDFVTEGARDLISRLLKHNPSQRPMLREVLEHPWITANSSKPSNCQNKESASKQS
Kind of assay: Aurora A counter screen. It counts as biochemical. The note with it: read-out: AUR-A (IC50). An outline of the steps: as §1
(In general: The purpose of a counterscreen is to sort out artefacts and off-target activity.)

The subject of assay [1] is YAP/TAZ transcriptional function in several cancer cell lines. To be noted: PCR; cited from earlier work.
Assay [2] concerns YAP/TAZ nuclear localization in several cancer cell lines. The note with it: IF confocal microscopy; cited from earlier work.

As for `CN1C2CCC1CN(c1ccc(Nc3ncc(Cl)c(Nc4ccsc4C(N)=O)n3)c(OC(F)F)c1)C2` [Compound I-30, 3-((5-chloro-2-((2-(difluoromethoxy)-4-(8-methyl-3,8-diazabicyclo[3.2.1]octan-3-yl)phenyl)amino)pyrimidin-4-yl)amino)thiophene-2-carboxamide], the IC50 on NUAK2 (h) was 0.1 to 10 nM; in the assay with MDA-MB-231 cells, 144 nM; on NUAK1, 11 to 100 nM; at Aurora A, 101 to 1000 nM.

`CN1CCN(c2ccc(Nc3ncc(C#N)c(Nc4ccsc4C(N)=O)n3)c(OC(F)F)c2)CC1` [Compound I-38, 3-((5-cyano-2-((2-(difluoromethoxy)-4-(4-methylpiperazin-1-yl)phenyl)amino)pyrimidin-4-yl)amino)thiophene-2-carboxamide]: the IC50 on NUAK2 (h) is 0.1 to 10 nM; in the assay on MDA-MB-231 cells, 120 nM; at NUAK1, 11 to 100 nM; at Aurora A it was 101 to 1000 nM.

For `CN1CCN(C2CCN(c3ccc(Nc4ncc(Cl)c(Nc5ccsc5C(N)=O)n4)c(OC(F)F)c3)CC2)CC1` [Compound I-41, 3-((5-chloro-2-((2-(difluoromethoxy)-4-(4-(4-methylpiperazin-1-yl)piperidin-1-yl)phenyl)amino)pyrimidin-4-yl)amino)thiophene-2-carboxamide], the “AUR-A (IC50, nM)/NUAK2 (IC50, nM)” value on NUAK2 (h) was 30. Also, the IC50 on NUAK2 (h) is 11 to 100 nM; in the assay with MDA-MB-231 cells, 202 nM; at NUAK1, 11 to 100 nM; on Aurora A, 101 to 1000 nM.

In the case of `CN1CCN(c2ccc(Nc3ncc(Cl)c(Nc4ccsc4C(N)=O)n3)c(OC(F)F)c2F)CC1` [Compound I-42, 3-((5-chloro-2-((2-(difluoromethoxy)-3-fluoro-4-(4-methylpiperazin-1-yl)phenyl)amino)pyrimidin-4-yl)amino)thiophene-2-carboxamide], on NUAK2 (h), the “AUR-A (IC50, nM)/NUAK2 (IC50, nM)” value was found to be 86. Moreover, the IC50 was 11 to 100 nM on NUAK2 (h), 653 nM in the assay on MDA-MB-231 cells, 11 to 100 nM against NUAK1 and greater than 1000 nM at Aurora A.

For `CN1CCN(C2CCN(c3ccc(Nc4ncc(C(F)(F)F)c(Nc5ccsc5C(N)=O)n4)c(OC(F)F)c3)CC2)CC1` [Compound I-52, 3-((2-((2-(difluoromethoxy)-4-(4-(4-methylpiperazin-1-yl)piperidin-1-yl)phenyl)amino)-5-(trifluoromethyl)pyrimidin-4-yl)amino)thiophene-2-carboxamide], the IC50 on NUAK2 (h) was 0.1 to 10 nM; with MDA-MB-231 cells, 142 nM; at NUAK1 it was 0.1 to 10 nM; on Aurora A, 11 to 100 nM.

Regarding `CN1CCCN(C2CCN(c3ccc(Nc4ncc(C(F)(F)F)c(Nc5ccsc5C(N)=O)n4)c(OC(F)F)c3)CC2)CC1` [Compound I-75, 3-((2-((2-(difluoromethoxy)-4-(4-(4-methyl-1,4-diazepan-1-yl)piperidin-1-yl)phenyl)amino)-5-(trifluoromethyl)pyrimidin-4-yl)amino)thiophene-2-carboxamide], the IC50 was 0.1 to 10 nM on NUAK2 (h), 120 nM with MDA-MB-231 cells, 11 to 100 nM against NUAK1 and 101 to 1000 nM at Aurora A.

Turning to `CC(C)N1CCN(C2CCN(c3ccc(Nc4ncc(C(F)(F)F)c(Nc5ccsc5C(N)=O)n4)c(OC(F)F)c3)CC2)CC1` [Compound I-78, 3-((2-((2-(difluoromethoxy)-4-(4-(4-isopropylpiperazin-1-yl)piperidin-1-yl)phenyl)amino)-5-(trifluoromethyl)pyrimidin-4-yl)amino)thiophene-2-carboxamide], the IC50 at NUAK2 (h) is 11 to 100 nM; with MDA-MB-231 cells, 96 nM; on NUAK1, 11 to 100 nM; at Aurora A it was 101 to 1000 nM.

`CN1CCN(c2ccc(Nc3ncc(Cl)c(N[C@@H]4CCCC[C@H]4C(N)=O)n3)c(OC(F)F)c2)CC1` [Compound I-82, (1R,2R)-2-((5-chloro-2-((2-(difluoromethoxy)-4-(4-methylpiperazin-1-yl)phenyl)amino)pyrimidin-4-yl)amino)cyclohexane-1-carboxamide]: the “AUR-A (IC50, nM)/NUAK2 (IC50, nM)” value at NUAK2 (h) came to 176. The IC50 on NUAK2 (h) is 0.1 to 10 nM; with MDA-MB-231 cells, 858 nM; against NUAK1 it was 11 to 100 nM; at Aurora A, 101 to 1000 nM.

As for `CN1CCN(C2CCN(c3ccc(Nc4ncc(Cl)c(N[C@@H]5CCCC[C@H]5C(N)=O)n4)c(OC(F)F)c3)CC2)CC1` [Compound I-87, (1R,2R)-2-((5-chloro-2-((2-(difluoromethoxy)-4-(4-(4-methylpiperazin-1-yl)piperidin-1-yl)phenyl)amino)pyrimidin-4-yl)amino)cyclohexane-1-carboxamide], the IC50 at NUAK2 (h) was 11 to 100 nM; in the assay with MDA-MB-231 cells it was 932 nM; against NUAK1, 11 to 100 nM; on Aurora A, greater than 1000 nM.

Turning to `CN1CCN(c2ccc(Nc3ncc4cc(C#N)c(=O)n(C5CCCC5)c4n3)cc2)CC1` [ON123300], in assay [1], the “YAP/TAZ transcriptional function (target gene expression)” value is given as “attenuates transcriptional function”. In assay [2], the YAP/TAZ nuclear localization result is listed as “a block of YAP/TAZ nuclear localization”.

Consider `CCC(=O)Nc1cccc(Oc2nc(Nc3ccc(N4CCN(C)CC4)cc3OC)ncc2Cl)c1` [WZ4003], for which the “YAP/TAZ transcriptional function (target gene expression)” value in assay [1] is given as “attenuates transcriptional function”. In assay [2], the YAP/TAZ nuclear localization entry is reported as “a block of YAP/TAZ nuclear localization”.
